Data published in patent US3974268A, “Bone-seeking technetium-99m imidodiphosphonate complex” (priority 1975, dated 1976).

Assays:
[1] = Organ distribution of 99mTc-IDP in rabbits with 85Sr administered simultaneously (Table 1); assay type: in vivo, New Zealand adult albino rabbits; conditions: for % Dose/1% Body Weight, AVG BONE: mean of femur, tibia, spine, pelvis
Description: The organ distribution of the ^99m Tc imidodiphosphonate (IDP) was studied after I.V. injection of 50-200 μCi containing 0.1-0.2 mg of IDP per animal in New Zealand adult albino rabbits weighing 3.5-5 kg and compared with 10-20 μCi of ^85 Sr administered simultaneously as a biological standard. The methods of tissue assay used were those described in the Subramanian et al. references, supra. These animals were sacrificed at various time intervals from 15 min. to 24 hrs. after injection. […] A whole body image of the dog was obtained in the right lateral projection 4 hours after intravenous injection of 5 mCi of ^99m Tc-IDP using the Ohio Nuclear Model 100 area scan camera fitted with a 140 kev high sensitivity parallel hole collimator, with the data density setting of 200.
Table 1 contains biological distribution data of ^99m Tc-IDP in rabbits with ^85 Sr used simultaneously. The numbers shown in parenthesis after the time of study is the number of animals used per time interval. The values for each organ shown are the averages for each group of animals. The bone concentration shown as % dose / 1% body weight is the mean value of individual average of concentrations in four types of bone; the femur, tibia, spine and pelvis. An overall mean concentration of the four types of bone was calculated for each animal and then the average of these mean values were determined. Similarly the mean values for bone/organ ratios were calculated for each group.
In order to compensate for biologic variation, bone agents are best studied by comparing the quantitative uptake of the new compound with simultaneously administered ^85 Sr as a means of normalization. In comparing several ^99m Tc labeled agents between each other one should not only compare the whole organ uptake of individual compounds but also the ratios of their concentrations with ^85 Sr, especially so in comparing bone uptakes. Due to regional variation in bone uptake with the skeleton it is difficult to correctly estimate whole body bone uptake quantitatively. Nevertheless, the data for single whole bones (femur and tibia) is useful. […] This concentration change over serial time intervals may be due to the metabolic breakdown of the compound at the bone mineral surface with the ^99m Tc complex being more labile, while we known the biological half life of ^85 Sr is prolonged. Even at the later time intervals than 2 hours, ^99m Tc-IDP concentration in bone is at least 20-25% higher than the other Tc complexes (Table 2). The soft tissue concentrations of all these complexes are lower, especially that of the muscle, than ^85 Sr. The liver concentration is somewhat higher than ^85 Sr for some ^99m Tc complexes. This should not be a problem because the total liver concentration is relatively low.

[2] = in words, stated as known; cited from earlier work
[3] = 15 min after I.V. injection, mean of 6 rabbits
[4] = 1 hour after I.V. injection, mean of 6 rabbits
[5] = 2 hours after I.V. injection, mean of 9 rabbits
[6] = 4 hours after I.V. injection, mean of 9 rabbits
[7] = 24 hours after I.V. injection, mean of 7 rabbits

## [85Sr] [85Sr]
[1]; [3]
  % Dose in Whole Organ, BLOOD: 16.1 % Dose
  % Dose in Whole Organ, KIDNEY: 1.27 % Dose
  % Dose in Whole Organ, LIVER: 2.13 % Dose
  % Dose in Whole Organ, MARROW: 0.903 % Dose
  % Dose in Whole Organ, MUSCLE: 15.6 % Dose
  % Dose in Whole Organ, URINE: 4.94 % Dose
  % Dose in Whole Organ, WHOLE FEMUR: 0.741 % Dose
  % Dose in Whole Organ, WHOLE TIBIA: 0.540 % Dose
  % Dose/1% Body Weight, BLOOD: 2.29 % Dose/1% Body Weight
  % Dose/1% Body Weight, FEMUR: 3.41 % Dose/1% Body Weight
  % Dose/1% Body Weight, KIDNEY: 2.68 % Dose/1% Body Weight
  % Dose/1% Body Weight, LG INT: 1.79 % Dose/1% Body Weight
  % Dose/1% Body Weight, LIVER: 0.692 % Dose/1% Body Weight
  % Dose/1% Body Weight, MARROW: 0.410 % Dose/1% Body Weight
  % Dose/1% Body Weight, MUSCLE: 0.363 % Dose/1% Body Weight
  % Dose/1% Body Weight, PELVIS: 5.06 % Dose/1% Body Weight
  % Dose/1% Body Weight, SM INT: 1.23 % Dose/1% Body Weight
  % Dose/1% Body Weight, SPINE: 3.76 % Dose/1% Body Weight
  % Dose/1% Body Weight, TIBIA: 3.02 % Dose/1% Body Weight
  RATIOS BONE/BLOOD: 1.71
  RATIOS BONE/MARROW: 9.84
  RATIOS BONE/MUSCLE: 10.6
[1]; 15 min after I.V. injection, 6 rabbits
  % Dose/1% Body Weight, AVG BONE: 3.82 % Dose/1% Body Weight
[1]; [4]
  % Dose in Whole Organ, BLOOD: 8.17 % Dose
  % Dose in Whole Organ, KIDNEY: 0.938 % Dose
  % Dose in Whole Organ, LIVER: 1.58 % Dose
  % Dose in Whole Organ, MARROW: 0.817 % Dose
  % Dose in Whole Organ, MUSCLE: 9.55 % Dose
  % Dose in Whole Organ, URINE: 8.96 % Dose
  % Dose in Whole Organ, WHOLE FEMUR: 1.27 % Dose
  % Dose in Whole Organ, WHOLE TIBIA: 1.03 % Dose
  % Dose/1% Body Weight, BLOOD: 1.17 % Dose/1% Body Weight
  % Dose/1% Body Weight, FEMUR: 5.23 % Dose/1% Body Weight
  % Dose/1% Body Weight, KIDNEY: 1.54 % Dose/1% Body Weight
  % Dose/1% Body Weight, LG INT: 0.961 % Dose/1% Body Weight
  % Dose/1% Body Weight, LIVER: 0.489 % Dose/1% Body Weight
  % Dose/1% Body Weight, MARROW: 0.382 % Dose/1% Body Weight
  % Dose/1% Body Weight, MUSCLE: 0.222 % Dose/1% Body Weight
  % Dose/1% Body Weight, PELVIS: 5.47 % Dose/1% Body Weight
  % Dose/1% Body Weight, SM INT: 0.654 % Dose/1% Body Weight
  % Dose/1% Body Weight, SPINE: 5.82 % Dose/1% Body Weight
  % Dose/1% Body Weight, TIBIA: 4.67 % Dose/1% Body Weight
  RATIOS BONE/BLOOD: 4.53
  RATIOS BONE/MARROW: 13.9
  RATIOS BONE/MUSCLE: 23.9
[1]; 1 hour after I.V. injection, 6 rabbits
  % Dose/1% Body Weight, AVG BONE: 5.30 % Dose/1% Body Weight
[1]; [5]
  % Dose in Whole Organ, BLOOD: 5.19 % Dose
  % Dose in Whole Organ, KIDNEY: 0.638 % Dose
  % Dose in Whole Organ, LIVER: 0.947 % Dose
  % Dose in Whole Organ, MARROW: 0.499 % Dose
  % Dose in Whole Organ, MUSCLE: 7.96 % Dose
  % Dose in Whole Organ, URINE: 16.6 % Dose
  % Dose in Whole Organ, WHOLE FEMUR: 1.67 % Dose
  % Dose in Whole Organ, WHOLE TIBIA: 1.34 % Dose
  % Dose/1% Body Weight, BLOOD: 0.742 % Dose/1% Body Weight
  % Dose/1% Body Weight, FEMUR: 6.84 % Dose/1% Body Weight
  % Dose/1% Body Weight, KIDNEY: 1.14 % Dose/1% Body Weight
  % Dose/1% Body Weight, LG INT: 0.762 % Dose/1% Body Weight
  % Dose/1% Body Weight, LIVER: 0.357 % Dose/1% Body Weight
  % Dose/1% Body Weight, MARROW: 0.227 % Dose/1% Body Weight
  % Dose/1% Body Weight, MUSCLE: 0.186 % Dose/1% Body Weight
  % Dose/1% Body Weight, PELVIS: 7.35 % Dose/1% Body Weight
  % Dose/1% Body Weight, SM INT: 0.669 % Dose/1% Body Weight
  % Dose/1% Body Weight, SPINE: 8.05 % Dose/1% Body Weight
  % Dose/1% Body Weight, TIBIA: 6.60 % Dose/1% Body Weight
  RATIOS BONE/BLOOD: 10.5
  RATIOS BONE/MARROW: 36
  RATIOS BONE/MUSCLE: 44
[1]; 2 hours after I.V. injection, 9 rabbits
  % Dose/1% Body Weight, AVG BONE: 7.21 % Dose/1% Body Weight
[1]; [6]
  % Dose in Whole Organ, BLOOD: 2.72 % Dose
  % Dose in Whole Organ, KIDNEY: 0.267 % Dose
  % Dose in Whole Organ, LIVER: 0.576 % Dose
  % Dose in Whole Organ, MARROW: 0.300 % Dose
  % Dose in Whole Organ, MUSCLE: 4.80 % Dose
  % Dose in Whole Organ, URINE: 26.2 % Dose
  % Dose in Whole Organ, WHOLE FEMUR: 1.84 % Dose
  % Dose in Whole Organ, WHOLE TIBIA: 1.57 % Dose
  % Dose/1% Body Weight, BLOOD: 0.388 % Dose/1% Body Weight
  % Dose/1% Body Weight, FEMUR: 7.87 % Dose/1% Body Weight
  % Dose/1% Body Weight, KIDNEY: 0.488 % Dose/1% Body Weight
  % Dose/1% Body Weight, LG INT: 0.421 % Dose/1% Body Weight
  % Dose/1% Body Weight, LIVER: 0.168 % Dose/1% Body Weight
  % Dose/1% Body Weight, MARROW: 0.137 % Dose/1% Body Weight
  % Dose/1% Body Weight, MUSCLE: 0.125 % Dose/1% Body Weight
  % Dose/1% Body Weight, PELVIS: 9.83 % Dose/1% Body Weight
  % Dose/1% Body Weight, SM INT: 0.300 % Dose/1% Body Weight
  % Dose/1% Body Weight, SPINE: 9.57 % Dose/1% Body Weight
  % Dose/1% Body Weight, TIBIA: 7.64 % Dose/1% Body Weight
  RATIOS BONE/BLOOD: 23.6
  RATIOS BONE/MARROW: 66.9
  RATIOS BONE/MUSCLE: 73.3
[1]; 4 hours after I.V. injection, 9 rabbits
  % Dose/1% Body Weight, AVG BONE: 9.16 % Dose/1% Body Weight
[1]; [7]
  % Dose in Whole Organ, BLOOD: 0.250 % Dose
  % Dose in Whole Organ, KIDNEY: 0.022 % Dose
  % Dose in Whole Organ, LIVER: 0.004 % Dose
  % Dose in Whole Organ, MARROW: 0.070 % Dose
  % Dose in Whole Organ, MUSCLE: 0.628 % Dose
  % Dose in Whole Organ, WHOLE FEMUR: 1.55 % Dose
  % Dose in Whole Organ, WHOLE TIBIA: 1.38 % Dose
  % Dose/1% Body Weight, BLOOD: 0.331 % Dose/1% Body Weight
  % Dose/1% Body Weight, FEMUR: 6.39 % Dose/1% Body Weight
  % Dose/1% Body Weight, KIDNEY: 0.067 % Dose/1% Body Weight
  % Dose/1% Body Weight, LG INT: 0.088 % Dose/1% Body Weight
  % Dose/1% Body Weight, LIVER: 0.016 % Dose/1% Body Weight
  % Dose/1% Body Weight, MARROW: 0.032 % Dose/1% Body Weight
  % Dose/1% Body Weight, MUSCLE: 0.015 % Dose/1% Body Weight
  % Dose/1% Body Weight, PELVIS: 8.13 % Dose/1% Body Weight
  % Dose/1% Body Weight, SM INT: 0.042 % Dose/1% Body Weight
  % Dose/1% Body Weight, SPINE: 6.96 % Dose/1% Body Weight
  % Dose/1% Body Weight, TIBIA: 6.58 % Dose/1% Body Weight
  RATIOS BONE/BLOOD: 20.9
  RATIOS BONE/MARROW: 217
  RATIOS BONE/MUSCLE: 462
[1]; 24 hours after I.V. injection, 7 rabbits
  % Dose/1% Body Weight, AVG BONE: 6.93 % Dose/1% Body Weight
[2]
  biological half life: prolonged
